Values joined by “and” are separate entries in the source; they are usually repeats but may differ in a detail not shown here. Equal values may be shown once.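 Interpolation was linear, between the two tested concentrations surrounding the appropriate level; five concentrations were tested over 48 hours in 96-well plates. GI50: concentration for 50% inhibition of growth. The concentration for full growth arrest is given as TGI.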 *1 amine or outer side, *2 acyl side, *3 side chain or, on linkers, in order; H or OH if unused. Where a SMILES comes first, the peptide text is derived from it. [ ]: non-standard residue; d: D form. The star is where a group is joined. Phe(4-NO2) = N[CH](Cc1ccc([N+](=O)[O-])cc1)C(=O)O; X32 = C[C@H](N[*:1])C(=O)C(C)(C)C(=O)[*:2]; Hmpa(2S,3S) = CC[C@H](C)[C@H](O)C(=O)O; NMeY = CN[C@@H](Cc1ccc(O)cc1)C(=O)O; NMeL = CN[C@@H](CC(C)C)C(=O)O; NMeV = CN[C@H](C(=O)O)C(C)C; Boc = CC(C)(C)OC(=O)*; βAla = NCCC(=O)O
Experiments:
Assay in all cases: NCI anticancer screen, dose series, 48 h
A498 renal = tested on: A498 renal
HS 578T breast = tested on: HS 578T breast
NCI-H522 lung = tested on: NCI-H522 lung
SN12C renal = tested on: SN12C renal
786-0 renal = tested on: 786-0 renal
MALME-3M melanoma = tested on: MALME-3M melanoma
OVCAR-5 ovarian = tested on: OVCAR-5 ovarian
A549 NSCLC = tested on: A549 NSCLC
SR leukemia = tested on: SR leukemia
SNB-75 CNS = tested on: SNB-75 CNS
COLO 205 colon = tested on: COLO 205 colon

Row | SMILES | TGI (A498 renal) | TGI (HS 578T breast) | TGI (NCI-H522 lung) | TGI (SN12C renal) | TGI (786-0 renal) | TGI (MALME-3M melanoma) | TGI (OVCAR-5 ovarian) | TGI (A549 NSCLC) | TGI (SR leukemia) | TGI (SNB-75 CNS) | TGI (COLO 205 colon) | GI50 (A498 renal)
1 | CCCCCCCCCCNC(=O)CCC(NC(=O)c1ccc(N(C)Cc2cnc3nc(N)nc(N)c3n2)cc1)C(=O)NCCCCCCCCCC (centres undefined) | 73.5 µM | 20.8 µM | 16.6 µM | > 57.2 µM | 13.5 µM | 37.7 µM | 66.1 µM | > 100 µM | > 24.5 µM | 32.1 µM | 15.2 µM | 
2 | CC(=O)OCc1ccc2oc(=O)c(C(=O)Oc3ccccc3)cc2c1 | > 100 µM | > 100 µM | > 100 µM | 99.2 µM | 45.8 µM | > 100 µM | > 100 µM | > 100 µM | > 100 µM | > 100 µM | > 100 µM | 
3 | COC(=O)C1OC(O[C@H]2CC[C@]3(C)[C@H]4CC=C5[C@@H]6CC(C)(C)CC[C@]6(C(=O)OC6OCC(O)C(O)C6OC6OC(C)C(OC7OCC(O)C(O)C7O)C(O)C6O)CC[C@@]5(C)[C@]4(C)CC[C@H]3C2(C)C)C(O)C(O)C1O (some centres undefined) | 20 µM and 35.3 µM | 39.4 µM and 35.9 µM | 30.9 µM and 30.5 µM | 27.1 µM and 31.2 µM | 29.2 µM and 32.4 µM | 29 µM and 32.8 µM | 31.4 µM and 42.8 µM | 33 µM and 41 µM | 32 µM and 24.9 µM | 30 µM and 30.4 µM | 25.8 µM and 30.6 µM | 7.25 µM and 20.7 µM
4 | NC(N)=Nc1ccc(CC(N)C(=O)O)cc1 (centres undefined) | > 12.5 µM | > 12.5 µM | > 12.5 µM | > 12.5 µM | > 12.5 µM | > 12.5 µM | > 12.5 µM | > 12.5 µM | > 12.5 µM | > 12.5 µM | > 12.5 µM | 
5 | N#C/C(N)=C(\C#N)NC(=O)C(=O)N/C(C#N)=C(\N)C#N | > 100 µM | > 100 µM | > 100 µM | > 100 µM | > 100 µM | > 100 µM | > 100 µM | > 100 µM | > 100 µM | > 100 µM | > 100 µM | 
6 | CCOC(=O)NC(Nc1ccc(C(=O)OCC)cc1)(C(F)(F)F)C(F)(F)F | > 100 µM | > 100 µM | > 100 µM | > 100 µM | > 100 µM | > 100 µM | > 100 µM | > 100 µM | > 100 µM | > 100 µM | > 100 µM | 
7 | COc1cc(/C=C/C(=O)C2(C(=O)/C=C/c3cc(OC)c(OC)c(OC)c3)CCCCC2)cc(OC)c1OC | > 100 µM | 89.8 µM | 96.9 µM | > 100 µM | > 100 µM | > 100 µM | > 100 µM | > 100 µM | > 100 µM | > 100 µM | > 100 µM | 
8 | COc1ccc(C(=O)/C=C/c2cc(O)c(O)c(F)c2F)c(OC)c1 | 55.5 µM | > 100 µM | 30.3 µM | 32.2 µM | 41.9 µM | 31.3 µM | 95.7 µM | > 100 µM | 26.8 µM | 79.5 µM | 53.1 µM | 
9 | COc1cc(CNNC(N)=S)cc(OC)c1OC | > 100 µM | > 100 µM | > 100 µM | > 100 µM | > 100 µM | > 100 µM | > 100 µM | > 100 µM | > 100 µM | > 100 µM | > 100 µM | 
10 | CC(=O)OCC1OC(n2c(-c3ccc(C)cc3)cc(-c3ccccc3)c(C#N)c2=S)C(OC(C)=O)C(OC(C)=O)C1OC(C)=O (centres undefined) | > 100 µM | > 100 µM | > 100 µM | > 100 µM | > 100 µM | > 100 µM | > 100 µM | > 100 µM | > 100 µM | > 100 µM | > 100 µM | 
11 | COC(=O)c1ccccc1C1CN=NC12Cc1cc(C)ccc1C2=O (centres undefined) | > 100 µM | > 100 µM | > 100 µM | > 100 µM | > 100 µM | > 100 µM | > 100 µM | > 100 µM | > 100 µM | > 100 µM | > 100 µM | 
12 | CC[C@H](C)[C@@H]1OC(=O)CCNC(=O)[C@@H](C)NC(=O)C(C)(C)C(=O)[C@H](C)NC(=O)[C@H](Cc2ccc(OC)cc2)N(C)C(=O)[C@H](C(C)C)N(C)C(=O)CNC(=O)[C@H](CC(C)C)N(C)C(=O)CNC1=O (cyclo(G[NMeL]G[NMeV][NMeY](Me)[X32][dA][βAla][Hmpa(2S,3S)])) | 5.91 µM | 20.8 µM | > 50 µM | > 50 µM | 12.7 µM | 10.3 µM | > 31.2 µM | > 50 µM | > 25.9 µM | 3.52 µM | 0.0545 µM | 
13 | C(=C\c1ccco1)/c1cccc(/C=C/c2ccco2)n1 | > 50 µM | > 50 µM | > 50 µM | > 50 µM | > 50 µM | > 50 µM | > 50 µM | > 50 µM | > 50 µM | 33.1 µM | > 50 µM | 
14 | N[C@H]1CCCC[C@@H]1N1C(=O)c2ccccc2C1(O)c1ccc(Cl)cc1 (some centres undefined) | 28.1 µM | 54.4 µM | 27.8 µM | 27 µM | 26.4 µM | 27.8 µM | 28.6 µM | 25.2 µM | 29.9 µM | 7.98 µM | 12.6 µM | 
15 | O=C(NCCCCCCNC(=O)c1cc(-c2ccccc2)nc2ccccc12)c1cc(-c2ccccc2)nc2ccccc12 | > 100 µM | > 100 µM | > 100 µM | > 100 µM | > 100 µM | > 100 µM | > 100 µM | > 100 µM | > 100 µM | > 100 µM | > 100 µM | 
16 | CCCCCCCCCCCCCCCCCCN(C)CC(COP(=O)([O-])OCC[N+](C)(C)C)OC (centres undefined) | 39.3 µM | > 85.8 µM | 30.2 µM | > 50.6 µM | 14.7 µM | 43.3 µM | 11.1 µM | 46.8 µM | 28.6 µM | 15.6 µM | 8.47 µM | 
17 | O=C1C(c2c(O)[nH]c3ccc(Br)cc23)=Nc2ccccc21 | 14.1 µM | 54.6 µM | 39.7 µM | > 100 µM | 5.75 µM | 44.4 µM | 26 µM | 17.3 µM | > 100 µM | 28.4 µM | 31.4 µM | 
18 | O=[N+]([O-])c1ccc(N/N=C/c2ccc(OCCCCCCCCCCCO)cc2)c([N+](=O)[O-])c1 | > 100 µM | 6.5 µM | 9.44 µM | 14.3 µM | 4 µM | 4.61 µM | > 56.1 µM | > 38.9 µM | 8.94 µM | 4.27 µM | 6.24 µM | 
19 | C=C1C2C[C@@H]3O[C@H]4C[C@H]5O[C@@]6(C[C@@H]7O[C@]8(C[C@H](C)[C@@H]9O[C@@H]%10CC(CO)O[C@@H]%10C[C@@H]9O8)C[C@H](C)[C@@H]7O6)C[C@H]5O[C@H]4[C@H](C)[C@H]3OC(=O)C[C@H]3CC[C@@H]4OC5[C@H]6O[C@]7(CC[C@H]8CC(=C)[C@H](CC[C@@H](C[C@H]1C)O2)O8)CC6O[C@@H]5[C@@H](O7)[C@H]4O3 (some centres undefined) | > 1 µM | < 0.0001 µM | < 0.0001 µM | > 1 µM | > 0.413 µM | > 1 µM | > 1 µM | 0.408 µM | > 1 µM | > 1 µM | 0.000322 µM | 
20 | CC(C)/C(Cl)=N\OC(=O)Nc1cccc(Cl)c1 | 33.2 µM | 72.8 µM | 3.33 µM | 32.4 µM | 29.1 µM | 24.1 µM | 18.3 µM | 35.7 µM | 7.22 µM | 33.2 µM | 4.61 µM | 
21 | CC1=C(C(=O)Nc2ccccc2)C2(CCCCC2)C(C#N)=C(SCC(=O)Nc2ccc(Br)cc2)N1 | 19.6 µM | 44.9 µM | 7.25 µM | 16.6 µM | 13.3 µM | 7.48 µM | 14.6 µM | 22.3 µM | 6.11 µM | 30.3 µM | 4.53 µM | 
22 | CNC(=O)CCC(NC(=O)OC(C)(C)C)C(=O)NC(Cc1ccc([N+](=O)[O-])cc1)C(=O)NCC(=O)NC (centres undefined) (Boc-Glu(NHMe)-[Phe(4-NO2)]-Gly-NHMe; configuration not given here) | > 100 µM | > 100 µM | > 100 µM | > 100 µM | > 100 µM | > 100 µM | > 100 µM | > 100 µM | > 100 µM | > 100 µM | > 100 µM | 
23 | CCOC(=O)C(SCCO)C(C(=O)OCC)n1ccc(=O)[nH]c1=O (centres undefined) | > 100 µM | > 100 µM | 22.7 µM | > 100 µM | > 50.6 µM | 32.9 µM | 47.6 µM | > 100 µM | 34 µM | > 95.9 µM | > 59.3 µM | 

From PubChem BioAssay (NCI)
